# ChEMBL document CHEMBL5705887, “Distinct concentration-dependent effects of the polo-like kinase 1-specific inhibitor GSK461364A, including differential effect on apoptosis” (Cancer Res, 2009)
# Active and inactive are the calls of the source. The rule behind the calls is not given here.
# Tests used:
# [1] = biological target: Ribosomal protein S6 kinase alpha-1 (Rattus norvegicus) (UniProt Q63531); experiment: Inhibition of recombinant rat RSK1 at 10 uM relative to control
# [2] = biological target: Serine/threonine-protein kinase 10 (Homo sapiens) (UniProt O94804); experiment: Inhibition of N-terminal his6-tagged recombinant human LOK (1 to 348 residues) expressed in baculovirus Sf21 cells at 10 uM relative to control
# [3] = biological target: Serine/threonine-protein kinase BRSK2 (Homo sapiens) (UniProt Q8IWQ3); experiment: Inhibition of full length N-terminal his6-tagged recombinant human BRSK2 expressed in baculovirus Sf21 cells at 10 uM relative to control
# [4] = biological target: NUAK family SNF1-like kinase 1 (Homo sapiens) (UniProt O60285); experiment: Inhibition of full length N-terminal his6-tagged recombinant human ARK5 (2 to end residues) expressed in baculovirus Sf21 cells at 10 uM relative to control
# U-87 MG = experiment: Antiproliferative activity against human U-87 MG cells assessed as growth inhibition incubated for 72 hrs by celltiter-glo assay; type: functional, U-87MG ATCC
# A-427 = experiment: Antiproliferative activity against human A-427 cells assessed as growth inhibition incubated for 72 hrs by celltiter-glo assay; type: functional
# OVCAR-8 = experiment: Antiproliferative activity against human OVCAR-8 cells assessed as growth inhibition incubated for 72 hrs by celltiter-glo assay; type: functional
# SW-620 = experiment: Antiproliferative activity against human SW620 cells assessed as growth inhibition incubated for 72 hrs by celltiter-glo assay; type: functional
# SAOS-2 = experiment: Antiproliferative activity against human SAOS-2 cells assessed as growth inhibition incubated for 72 hrs by celltiter-glo assay; type: functional
# A704 [5] = experiment: Antiproliferative activity against human A704 cells assessed as growth inhibition incubated for 72 hrs by celltiter-glo assay; type: functional
# SK-OV-3 [6] = experiment: Antiproliferative activity against human SK-OV-3 cells assessed as growth inhibition incubated for 72 hrs by celltiter-glo assay; type: functional
# T-24 = experiment: Antiproliferative activity against human T24 cells assessed as growth inhibition incubated for 72 hrs by celltiter-glo assay; type: functional
# SCLC = experiment: Antiproliferative activity against human SCLC cells assessed as growth inhibition incubated for 72 hrs by celltiter-glo assay; type: functional
# MCF7 = experiment: Antiproliferative activity against human MCF7 cells assessed as growth inhibition incubated for 72 hrs by celltiter-glo assay; type: functional
# OVCAR-3 [7] = experiment: Antiproliferative activity against human OVCAR-3 cells assessed as growth inhibition incubated for 72 hrs by celltiter-glo assay; type: functional
# [8] = Antiproliferative activity against human A375P cells assessed as growth inhibition incubated for 72 hrs by celltiter-glo assay; type: functional
# NCI-N87 = experiment: Antiproliferative activity against human NCI-N87 cells assessed as growth inhibition incubated for 72 hrs by celltiter-glo assay; type: functional
# COLO 205 [9] = experiment: Antitumor activity against human COLO 205 cells xenografted in Nude mouse assessed as tumor growth delay time at 100 mg/kg, ip administered every 2 to 4 days; type: functional; settings: time 2-4 day
# COLO 205 [10] = experiment: Antitumor activity against human COLO 205 cells xenografted in Nude mouse assessed as effect on Ki67 level at 50 mg/kg, ip administered one dose every 2 day repeated for 12 days by immunohistochemistry analysis; type: functional, organism-based; settings: time 12.0 day
# COLO 205 [11] = experiment: Antitumor activity against human COLO 205 cells xenografted in Nude mouse assessed as increase in pHH3 level at 50 to 100 mg/kg, ip administered one dose every 2 day repeated for 12 days by immunohistochemistry analysis; type: functional, organism-based; settings: dose 50-100 mg/kg, time 12.0 day
# COLO 205 [12] = experiment: Antitumor activity against human COLO 205 cells xenografted in Nude mouse assessed as increase in pIk1 level at 50 to 100 mg/kg, ip measured at 24 to 48 hrs by immunohistochemistry analysis; type: functional, organism-based; settings: dose 50-100 mg/kg, time 24-48 hrs
# A704 [13] = experiment: Antiproliferative activity against human A704 cells assessed as of viable cell signal at minimum maximum cell growth incubated for 72 hrs by celltiter-glo assay relative to control; type: functional
# A-431 = experiment: Antiproliferative activity against human A-431 cells assessed as of viable cell signal at minimum maximum cell growth incubated for 72 hrs by celltiter-glo assay relative to control; type: functional
# A498 = experiment: Antiproliferative activity against human A498 cells assessed as of viable cell signal at minimum maximum cell growth incubated for 72 hrs by celltiter-glo assay relative to control; type: functional
# COLO 205 [14] = experiment: Antiproliferative activity against human COLO 205 cells assessed as of viable cell signal at minimum maximum cell growth incubated for 72 hrs by celltiter-glo assay relative to control; type: functional
# HN5 = experiment: Antiproliferative activity against human HN5 cells assessed as of viable cell signal at minimum maximum cell growth incubated for 72 hrs by celltiter-glo assay relative to control; type: functional
# HT-1080 = experiment: Antiproliferative activity against human HT-1080 cells assessed as of viable cell signal at minimum maximum cell growth incubated for 72 hrs by celltiter-glo assay relative to control; type: functional
# MDA-MB-468 = experiment: Antiproliferative activity against human MDA-MB-468 cells assessed as of viable cell signal at minimum maximum cell growth incubated for 72 hrs by celltiter-glo assay relative to control; type: functional
# NCI-H460 = experiment: Antiproliferative activity against human NCI-H460 cells assessed as of viable cell signal at minimum maximum cell growth incubated for 72 hrs by celltiter-glo assay relative to control; type: functional
# NCI-H522 = experiment: Antiproliferative activity against human NCI-H522 cells assessed as of viable cell signal at minimum maximum cell growth incubated for 72 hrs by celltiter-glo assay relative to control; type: functional
# THP-1 = experiment: Antiproliferative activity against human THP-1 cells assessed as of viable cell signal at minimum maximum cell growth incubated for 72 hrs by celltiter-glo assay relative to control; type: functional
# COLO 205 [15] = experiment: Antiproliferative activity against human COLO 205 cells assessed as viable cell signal at maximum growth inhibition incubated for 72 hrs by celltiter-glo assay relative to control; type: functional
# NCI-H1299 = experiment: Antiproliferative activity against human NCI-H1299 cells assessed as viable cell signal at maximum growth inhibition incubated for 72 hrs by celltiter-glo assay relative to control; type: functional
# Hep 3B2 = experiment: Antiproliferative activity against human Hep3B cells assessed as viable cell signal at maximum growth inhibition incubated for 72 hrs by celltiter-glo assay relative to control; type: functional
# OVCAR-3 [16] = experiment: Antiproliferative activity against human OVCAR-3 cells assessed as viable cell signal at maximum growth inhibition incubated for 72 hrs by celltiter-glo assay relative to control; type: functional
# [17] = Antiproliferative activity against human PL45 cells assessed as viable cell signal at maximum growth inhibition incubated for 72 hrs by celltiter-glo assay relative to control; type: functional
# RKO = experiment: Antiproliferative activity against human RKO cells assessed as viable cell signal at maximum growth inhibition incubated for 72 hrs by celltiter-glo assay relative to control; type: functional
# SK-OV-3 [18] = experiment: Antiproliferative activity against human SK-OV-3 cells assessed as viable cell signal at maximum growth inhibition incubated for 72 hrs by celltiter-glo assay relative to control; type: functional
# SW480 = experiment: Antiproliferative activity against human SW480 cells assessed as viable cell signal at maximum growth inhibition incubated for 72 hrs by celltiter-glo assay relative to control; type: functional
# U2OS = experiment: Antiproliferative activity against human U2OS cells assessed as viable cell signal at maximum growth inhibition incubated for 72 hrs by celltiter-glo assay relative to control; type: functional
# Serine/threonine-protein kinase BRSK2 (Homo sapiens), sequence (Q8IWQ3 whole entry): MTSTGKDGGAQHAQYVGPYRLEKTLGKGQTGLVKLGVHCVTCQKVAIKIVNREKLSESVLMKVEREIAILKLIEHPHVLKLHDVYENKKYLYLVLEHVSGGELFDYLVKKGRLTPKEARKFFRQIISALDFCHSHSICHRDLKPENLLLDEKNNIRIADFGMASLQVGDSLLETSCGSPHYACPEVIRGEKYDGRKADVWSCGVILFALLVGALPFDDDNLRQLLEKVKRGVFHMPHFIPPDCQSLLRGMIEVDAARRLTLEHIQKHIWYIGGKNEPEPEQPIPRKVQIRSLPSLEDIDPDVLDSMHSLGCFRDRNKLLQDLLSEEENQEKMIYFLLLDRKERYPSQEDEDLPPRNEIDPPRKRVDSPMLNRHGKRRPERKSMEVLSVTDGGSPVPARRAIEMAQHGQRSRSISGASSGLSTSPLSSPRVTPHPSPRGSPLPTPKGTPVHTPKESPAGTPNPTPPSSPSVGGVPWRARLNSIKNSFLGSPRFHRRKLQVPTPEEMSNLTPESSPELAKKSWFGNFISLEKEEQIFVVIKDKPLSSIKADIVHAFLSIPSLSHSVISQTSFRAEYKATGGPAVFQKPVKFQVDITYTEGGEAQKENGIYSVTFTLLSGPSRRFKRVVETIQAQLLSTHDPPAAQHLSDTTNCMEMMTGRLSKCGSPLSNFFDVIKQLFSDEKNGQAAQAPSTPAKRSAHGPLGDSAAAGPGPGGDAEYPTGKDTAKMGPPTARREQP
# Serine/threonine-protein kinase 10 (Homo sapiens), sequence (O94804 whole entry, looked up, the tested form may be a part): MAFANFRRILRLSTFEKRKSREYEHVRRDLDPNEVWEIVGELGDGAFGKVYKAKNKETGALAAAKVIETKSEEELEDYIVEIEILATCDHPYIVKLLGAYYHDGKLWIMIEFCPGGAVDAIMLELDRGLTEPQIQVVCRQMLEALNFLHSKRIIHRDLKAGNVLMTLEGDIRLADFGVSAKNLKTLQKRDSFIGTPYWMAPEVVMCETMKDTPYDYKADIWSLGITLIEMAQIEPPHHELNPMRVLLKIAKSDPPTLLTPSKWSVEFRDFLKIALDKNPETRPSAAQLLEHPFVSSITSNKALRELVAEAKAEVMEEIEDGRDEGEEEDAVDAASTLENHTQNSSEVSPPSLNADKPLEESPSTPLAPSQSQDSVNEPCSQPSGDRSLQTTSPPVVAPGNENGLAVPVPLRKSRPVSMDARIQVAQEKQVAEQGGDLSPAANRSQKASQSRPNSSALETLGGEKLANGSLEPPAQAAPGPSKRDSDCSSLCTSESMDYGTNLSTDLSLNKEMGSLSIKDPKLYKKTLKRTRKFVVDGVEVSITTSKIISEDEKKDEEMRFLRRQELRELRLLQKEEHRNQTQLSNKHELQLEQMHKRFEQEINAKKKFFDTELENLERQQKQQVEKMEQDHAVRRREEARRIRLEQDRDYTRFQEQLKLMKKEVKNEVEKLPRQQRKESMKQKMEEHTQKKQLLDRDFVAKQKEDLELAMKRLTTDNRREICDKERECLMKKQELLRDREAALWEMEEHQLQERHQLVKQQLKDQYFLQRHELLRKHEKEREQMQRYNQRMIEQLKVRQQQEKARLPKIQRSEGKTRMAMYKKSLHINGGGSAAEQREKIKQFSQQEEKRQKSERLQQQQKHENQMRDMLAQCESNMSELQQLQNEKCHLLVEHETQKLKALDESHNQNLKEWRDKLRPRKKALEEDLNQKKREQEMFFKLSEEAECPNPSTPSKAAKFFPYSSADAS
# Ribosomal protein S6 kinase alpha-1 (Rattus norvegicus), sequence (Q63531 whole entry, the tested form may be a part): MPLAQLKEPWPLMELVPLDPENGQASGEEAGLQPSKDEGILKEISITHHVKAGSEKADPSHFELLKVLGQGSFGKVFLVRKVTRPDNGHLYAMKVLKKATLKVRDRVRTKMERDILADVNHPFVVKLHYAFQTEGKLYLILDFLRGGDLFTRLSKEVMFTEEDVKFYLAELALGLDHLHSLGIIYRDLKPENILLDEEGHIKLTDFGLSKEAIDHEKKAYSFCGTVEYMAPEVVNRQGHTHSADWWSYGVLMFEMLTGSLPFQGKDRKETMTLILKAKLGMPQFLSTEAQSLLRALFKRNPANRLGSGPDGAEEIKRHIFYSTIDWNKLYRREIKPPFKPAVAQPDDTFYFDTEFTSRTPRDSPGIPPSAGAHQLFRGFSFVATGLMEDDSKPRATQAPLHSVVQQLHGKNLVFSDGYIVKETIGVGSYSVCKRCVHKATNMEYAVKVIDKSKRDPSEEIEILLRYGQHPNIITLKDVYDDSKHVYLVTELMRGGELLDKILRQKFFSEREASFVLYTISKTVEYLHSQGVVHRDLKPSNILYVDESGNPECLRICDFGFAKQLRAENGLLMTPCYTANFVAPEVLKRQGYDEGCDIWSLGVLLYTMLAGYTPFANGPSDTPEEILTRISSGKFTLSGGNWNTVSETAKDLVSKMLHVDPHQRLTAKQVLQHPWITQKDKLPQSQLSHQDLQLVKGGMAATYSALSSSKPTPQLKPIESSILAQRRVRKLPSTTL
# NUAK family SNF1-like kinase 1 (Homo sapiens), sequence (O60285 whole entry): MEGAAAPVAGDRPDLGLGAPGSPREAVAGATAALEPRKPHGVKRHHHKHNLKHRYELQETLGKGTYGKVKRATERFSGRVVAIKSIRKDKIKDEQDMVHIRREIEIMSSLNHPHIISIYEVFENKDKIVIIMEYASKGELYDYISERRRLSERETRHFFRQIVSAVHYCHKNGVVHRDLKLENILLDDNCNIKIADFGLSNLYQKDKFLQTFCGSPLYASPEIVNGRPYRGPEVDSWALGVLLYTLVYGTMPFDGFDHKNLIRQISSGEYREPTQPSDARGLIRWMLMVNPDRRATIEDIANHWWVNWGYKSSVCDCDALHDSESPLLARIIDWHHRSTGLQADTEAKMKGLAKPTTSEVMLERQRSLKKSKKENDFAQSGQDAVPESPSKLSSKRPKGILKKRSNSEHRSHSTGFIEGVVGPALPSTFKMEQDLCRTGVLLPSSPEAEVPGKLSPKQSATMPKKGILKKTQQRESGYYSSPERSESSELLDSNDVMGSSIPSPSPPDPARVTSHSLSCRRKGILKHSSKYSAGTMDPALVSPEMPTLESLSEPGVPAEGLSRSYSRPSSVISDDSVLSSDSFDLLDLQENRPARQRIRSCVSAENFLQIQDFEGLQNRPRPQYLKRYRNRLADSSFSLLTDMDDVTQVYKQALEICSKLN
compound,measurement,setting,value
C[C@@H](Oc1cc(-n2cnc3ccc(CN4CCN(C)CC4)cc32)sc1C(N)=O)c1ccccc1C(F)(F)F [GSK-461364],inhibition,[1],87%
same,inhibition,[2],86%
same,inhibition,[3],79%
same,inhibition,[4],79%
same,GI50,U-87 MG,7.45 nM
same,GI50,A-427,22.8 nM
same,GI50,OVCAR-8,20.4 nM
same,GI50,SW-620,6.6 nM
same,GI50,SAOS-2,14.2 nM
same,GI50,A704 [5],183 nM
same,GI50,SK-OV-3 [6],28.9 nM
same,GI50,T-24,42.3 nM
same,GI50,SCLC,17.4 nM
same,GI50,MCF7,6.4 nM
same,GI50,OVCAR-3 [7],12.9 nM
same,GI50,[8],23.6 nM
same,GI50,NCI-N87,21.5 nM
same,Time,COLO 205 [9],18 days
same,Activity,COLO 205 [10],Active
same,Activity,COLO 205 [11],Active
same,Activity,COLO 205 [12],Active
same,Emin,A704 [13],3.2%
same,Emin,A-431,151.5%
same,Emin,A498,243.2%
same,Emin,COLO 205 [14],102.6%
same,Emin,HN5,39.8%
same,Emin,HT-1080,62.5%
same,Emin,MDA-MB-468,182.2%
same,Emin,NCI-H460,94.6%
same,Emin,NCI-H522,125%
same,Emin,THP-1,60.3%
same,Emax,COLO 205 [15],616%
same,Emax,NCI-H1299,495%
same,Emax,Hep 3B2,220%
same,Emax,OVCAR-3 [16],496%
same,Emax,[17],267%
same,Emax,RKO,456%
same,Emax,SK-OV-3 [18],345%
same,Emax,SW480,512%
same,Emax,U2OS,771%
